Data published in US20230138851A1, “NOVEL ALKYNE DERIVATIVES” (CARNA BIOSCIENCES, INC., priority 2020, published 2023).

What was measured:
Format in all cases: biochemical
DYRK1A = target: T1, DYRK1A (Homo sapiens, UniProt Q13627); assay: Inhibition test on activity of DYRK family, mobility shift assay (MSA), DYRK1A; conditions: ATP 100 μM, FITC-labeled DYRKtide peptide substrate, room temperature 1 hour; for IC50: read-out: Inhibitory Activity 1a (IC50 against DYRK1A)
T1 construct: purchased Carna Biosciences, Inc. 04-130
Description: (§1) [Inhibition Test on Activity of DYRK Family (DYRK1A, DYRK1B, DYRK2, and […])]
(§2) (Method for Measuring Kinase Activity)
(§3) The kinase activity was measured by mobility shift assay (MSA) method using QuickScout Screening Assist™ MSA (commercially available kit manufactured by Carna Biosciences, Inc.). The substrate of the kinase reaction used was an FITC-labeled DYRKtide peptide included in the kit. An assay buffer [20 mM HEPES, 0.01% Triton X-100™, 2 mM dithiothreitol, pH 7.5] was used to create a substrate mixture solution with a substrate (4 μM), MgCl2 (20 mM), and ATP (DYRK1A: 100 μM; DYRK1B: 200 μM; DYRK2: 40 μM; and DYRK3: 20 μM). In addition, kinases (DYRK1A: manufactured by Carna Biosciences, Inc., Cat. No. 04-130; DYRK1B: manufactured by Carna Biosciences, Inc., Cat. No. 04-131; DYRK2; manufactured by Carna Biosciences, Inc., Cat. No. 04-132; and DYRK3; manufactured by Carna Biosciences, Inc., Cat. No. 04-133) were diluted with the assay buffer to prepare enzyme solutions (DYRK1A: 0.2 ng/μL; DYRK1B: 0.08 ng/μL; DYRK2: 0.04 ng/μL; and DYRK3: 0.25 ng/μL). The 10 mM solution of the test compound in DMSO was further diluted with DMSO to 10 levels of the concentration (0.00003 mM, 0.0001 mM, 0.0003 mM, 0.001 mM, 0.003 mM, 0.01 mM, 0.03 mM, 0.1 mM, 0.3 mM, and 1 mM), each of which was subjected to 25-fold dilution with the assay buffer to obtain a drug solution (4% DMSO solution). 5 μL of the drug solution or a control solution (4% DMSO-assay buffer), 5 μL of the substrate mixture solution, and 10 μL of the enzyme solution were mixed in the wells of a polypropylene 384-well plate and allowed to react at room temperature for 1 hour, and then the reaction was quenched by adding 60 μL of the termination buffer included in the kit. Subsequently, the quantities of the substrates (S) and the phosphorylated substrate (P) in the reaction solution were measured using LabChip EZ Reader II system (manufactured by Caliper Life Sciences) according to the protocol of the assay kit.
(§4) (Method for Evaluating Inhibitory Activity)
(§5) The heights of the peaks of the “substrate” and the “phosphorylated substrate” were expressed as S and P, respectively, and a blank containing the assay buffer instead of the enzyme solution was also measured.
(§6) The inhibition rate (%) of the test compound was calculated according to the following equation:
(§7) Inhibition rate (%)=(1−(C−A)/(B−A))×100
(§8) wherein, A, B, and C represent P/(P+S) of the blank well, P/(P+S) of the control solution well, and P/(P+S) of the compound-containing well, respectively.
(§9) The IC50 value was calculated via a regression analysis of the inhibition rate and the test compound concentration (logarithmic value).
(§10) The inhibiting activities of representative compounds of the present invention are shown against DYRK1A, DYRK1B, DYRK2, and DYRK3 in Tables 7 and 8. The kinase activity inhibitory effect was indicated with the mark *** at an IC50 value of less than 0.01 μM; the mark ** at 0.01 μM or more and less than 0.1 μM; the mark * at 0.1 μM or more and less than 1 μM; and the mark — at 1 μM or more (N.D. indicates not measured).

DYRK2 = target: T2, DYRK2 (Homo sapiens, UniProt Q92630); assay: Inhibition test on activity of DYRK family, mobility shift assay (MSA), DYRK2; conditions: ATP 40 μM, FITC-labeled DYRKtide peptide substrate, room temperature 1 hour; for IC50: read-out: Inhibitory Activity 2 (IC50 against DYRK2)
T2 construct: purchased Carna Biosciences, Inc. 04-132
T2 sequence (Q92630 1-601): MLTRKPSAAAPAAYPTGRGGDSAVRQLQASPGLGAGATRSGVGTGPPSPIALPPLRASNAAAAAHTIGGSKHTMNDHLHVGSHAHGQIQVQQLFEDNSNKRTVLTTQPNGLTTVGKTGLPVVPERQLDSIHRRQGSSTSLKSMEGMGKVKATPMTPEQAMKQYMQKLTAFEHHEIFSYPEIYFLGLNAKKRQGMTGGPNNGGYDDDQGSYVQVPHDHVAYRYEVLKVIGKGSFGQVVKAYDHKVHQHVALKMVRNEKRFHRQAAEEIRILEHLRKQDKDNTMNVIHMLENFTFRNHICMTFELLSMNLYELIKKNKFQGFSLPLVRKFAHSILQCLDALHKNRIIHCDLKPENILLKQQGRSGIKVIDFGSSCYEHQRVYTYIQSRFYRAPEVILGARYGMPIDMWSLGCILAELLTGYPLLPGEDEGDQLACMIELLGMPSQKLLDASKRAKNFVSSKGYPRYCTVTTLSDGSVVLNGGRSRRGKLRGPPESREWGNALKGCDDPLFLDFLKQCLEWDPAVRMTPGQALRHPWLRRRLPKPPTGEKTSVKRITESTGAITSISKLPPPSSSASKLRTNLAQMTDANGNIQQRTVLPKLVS
Description: as §1, §2, §3, §4, §5, §6, §7, §8, §9, §10

DYRK3 = target: T3, DYRK3 (Homo sapiens, UniProt O43781); assay: Inhibition test on activity of DYRK family, mobility shift assay (MSA), DYRK3; conditions: ATP 20 μM, FITC-labeled DYRKtide peptide substrate, room temperature 1 hour; for IC50: read-out: Inhibitory Activity 3 (IC50 against DYRK3)
T3 construct: purchased Carna Biosciences, Inc. 04-133
T3 sequence (O43781 1-588): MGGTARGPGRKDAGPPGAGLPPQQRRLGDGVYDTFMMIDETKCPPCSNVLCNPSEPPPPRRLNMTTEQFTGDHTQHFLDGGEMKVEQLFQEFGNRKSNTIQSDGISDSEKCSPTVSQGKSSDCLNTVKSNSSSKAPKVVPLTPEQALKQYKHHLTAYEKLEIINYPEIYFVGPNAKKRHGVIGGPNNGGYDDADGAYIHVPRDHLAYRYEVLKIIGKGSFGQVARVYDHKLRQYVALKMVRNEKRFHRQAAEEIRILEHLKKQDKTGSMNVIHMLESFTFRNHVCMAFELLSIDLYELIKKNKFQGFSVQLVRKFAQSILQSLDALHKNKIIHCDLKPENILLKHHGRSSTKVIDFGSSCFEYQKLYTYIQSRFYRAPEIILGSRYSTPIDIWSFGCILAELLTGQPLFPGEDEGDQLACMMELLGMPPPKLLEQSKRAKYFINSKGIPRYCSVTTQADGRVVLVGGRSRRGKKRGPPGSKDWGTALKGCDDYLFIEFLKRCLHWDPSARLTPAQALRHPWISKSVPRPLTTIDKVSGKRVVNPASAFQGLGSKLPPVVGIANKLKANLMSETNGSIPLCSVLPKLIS
Description: as §1, §2, §3, §4, §5, §6, §7, §8, §9, §10

Structure (SMILES) | IC50 (DYRK1A) | Inhibitory Activity 2 (IC50 against DYRK2) (DYRK2) | IC50 (DYRK3) | Inhibitory Activity 1a (IC50 against DYRK1A) (DYRK1A) | IC50 (DYRK2) | Inhibitory Activity 3 (IC50 against DYRK3) (DYRK3)
CC#C[C@H]1[C@H](CF)NC(=O)N1c1nc2c3c(ccc2s1)OCC3 (single isomer, unassigned) [Example 78, trans-1-(7,8-dihydrobenzofuro[4,5-d]thiazol-2-yl)-4-(fluoromethyl)-5-(prop-1-yn-1-yl)imidazolidin-2-one] | < 0.01 µM | * * | 0.1 to 1 µM |  |  | 
O=C1NCC(C#CCO)N1c1nc2c3c(ccc2s1)OCC3 (racemic) [Example 19, (RS)-1-(7,8-dihydrobenzofuro[4,5-d]thiazol-2-yl)-5-(3-hydroxyprop-1-yn-1-yl)imidazolidin-2-one] |  |  | 0.1 to 1 µM | * * * | 0.1 to 1 µM | 
CC#C[C@@H]1[C@H](CF)NC(=O)N1c1nc2c3c(ccc2s1)OCC3 (relative stereo) [Example 80, cis-1-(7,8-dihydrobenzofuro[4,5-d]thiazol-2-yl)-4-(fluoromethyl)-5-(prop-1-yn-1-yl)imidazolidin-2-one] | < 0.01 µM |  | 0.1 to 1 µM |  | ≥ 1 µM | 
CC#C[C@H]1[C@H](COC)NC(=O)N1c1nc2c3c(ccc2s1)OCC3 (single isomer, unassigned) [Example 76, trans-1-(7,8-dihydrobenzofuro[4,5-d]thiazol-2-yl)-4-(methoxymethyl)-5-(prop-1-yn-1-yl)imidazolidin-2-one] |  |  | ≥ 1 µM | * * | ≥ 1 µM | 
CC#C[C@H]1[C@H](CN(C)C)NC(=O)N1c1nc2c3c(ccc2s1)OCC3 (single isomer, unassigned) [Example 69, trans-1-(7,8-dihydrobenzofuro[4,5-d]thiazol-2-yl)-4-[(dimethylamino)methyl]-5-(prop-1-yn-1-yl)imidazolidin-2-one] |  |  | 0.1 to 1 µM | * * | ≥ 1 µM | 
C#CC1CNC(=O)N1c1nc2c3c(ccc2s1)OCC3 (single isomer, unassigned) [Example 13, 1-(7,8-dihydrobenzofuro[4,5-d]thiazol-2-yl)-5-ethynylimidazolidin-2-one] |  | * * |  | * * * |  | * *
CC#C[C@@H]1[C@H](CO)NC(=O)N1c1nc2c3c(ccc2s1)OCCO3 (relative stereo) [Example 64, cis-1-(7,8-dihydro-[1,4]dioxino[2′,3′:5,6]benz[1,2-d]thiazol-2-yl)-4-(hydroxymethyl)-5-(prop-1-yn-1-yl)imidazolidin-2-one] |  |  | 0.1 to 1 µM | * * * | 0.1 to 1 µM | 
CC#CC1CNC(=O)N1c1nc2c3c(ccc2s1)OCC3 (single isomer, unassigned) [Example 10, 1-(7,8-dihydrobenzofuro[4,5-d]thiazol-2-yl)-5-(prop-1-yn-1-yl)imidazolidin-2-one] | 0.1 to 1 µM |  | ≥ 1 µM |  | ≥ 1 µM | 
CC#CC1CNC(=O)N1c1nc2c3c(ccc2s1)OCC(C)N3C (single isomer, unassigned) [Example 48, 1-(-8,9-dimethyl-8,9-dihydro-7H-thiazolo[4′,5′:3,4]benz[1,2-b][1,4]oxazin-2-yl)-5-(prop-1-yn-1-yl)imidazolidin-2-one] | 0.1 to 1 µM |  | ≥ 1 µM |  | ≥ 1 µM | 
CC#C[C@@H]1[C@H](C)NC(=O)N1c1nc2c3c(ccc2s1)OCCC3 [Example 57, (4S,5R)-1-(8,9-dihydro-7H-chromeno[5,6-d]thiazol-2-yl)-4-methyl-5-(prop-1-yn-1-yl)imidazolidin-2-one] |  |  | 0.1 to 1 µM | * * * | 0.1 to 1 µM | 
CC#CC1CNC(=O)N1c1nc2c(ccc3ncn(CC(C)(C)O)c32)s1 (racemic) [Example 37, (RS)-1-[8-(2-hydroxy-2-methylpropyl)-8H-imidazo[4′,5′;5,6]benz[1,2-d]thiazol-2-yl]-5-(prop-1-yn-1-yl)imidazolidin-2-one] |  |  |  | * * | 0.1 to 1 µM | * *
CC#CC1CNC(=O)N1c1nc2c(ccc3nc[nH]c32)s1 (racemic) [Example 35, (RS)-1-(8H-imidazo[4′,5′:5,6]benz[1,2-d]thiazol-2-yl)-5-(prop-1-yn-1-yl)imidazolidin-2-one] |  |  | 0.1 to 1 µM | ** * | 0.1 to 1 µM | 
C#CC1CNC(=O)N1c1nc2c3c(ccc2s1)OCC3 (single isomer, unassigned) [Example 14, 1-(7,8-dihydrobenzofuro[4,5-d]thiazol-2-yl)-5-ethynylimidazolidin-2-one] |  |  | 0.1 to 1 µM | * * | 0.1 to 1 µM | 
CC#CC1CNC(=O)N1c1nc2c3c(ccc2s1)OCCN3CCN1CCCCC1 (racemic) [Example 43, (RS)-1-{9-[2-(piperidin-1-yl)ethyl]-8,9-dihydro-7H-thiazolo[4′,5′:3,4]benz[1,2-b][1,4]oxazin-2-yl}-5-(prop-1-yn-1-yl)imidazolidin-2-one] | 0.1 to 1 µM |  | ≥ 1 µM |  | ≥ 1 µM | 
CC#CC1CNC(=O)N1c1nc2c(ccc3ocnc32)s1 (racemic) [Example 7, (RS)-5-(prop-1-yn-1-yl)-1-(thiazolo[5′,4′:5,6]benzo[1,2-d]oxazole-7-yl)imidazolidin-2-one] |  |  | ≥ 1 µM | * * * | ≥ 1 µM | 
